Drawing on the SangsterLogP compilation, this text covers logD and logP for 29 compounds.

The nature of one data set: method code SF-HPLC, from DOI: 10.1016/s0223-5234(98)80011-1. The following applies: pH 7.4.
For `C1CN(c2nc(CC3CC3)nc(NC3CC3)n2)CCO1`, the logD – broadly, the decadic logarithm of the distribution of all forms, ionised or not, between an organic phase and buffer at a given pH – came out at 2.33.

With `CCCc1nc(NCC)nc(N2CCCCC2)n1`, the pH-dependent lipophilicity (logD) turned out to be 3.34.

In turn, `CCCCc1nc(NC2CC2)nc(N2CCOCC2)n1` showed a logD of 2.8.

The compound `O=S1CCN(c2nc(CC3CC3)nc(NC3CC3)n2)CC1` yielded a logD of 1.56.

Take `CC(C)Cc1nc(NC2CC2)nc(N2CC3CCC(C2)O3)n1`: the logD stood at 3.34.

As for `CCCc1nc(NC(=O)c2ccccc2)nc(N2CCOCC2)n1`, the logD turned out to be 2.33.

Compound `COC1CN(c2nc(CC3CC3)nc(NC3CC3)n2)C1` gave a log distribution coefficient (logD) of 2.37.

Regarding `OC1CN(c2nc(CC3CC3)nc(NC3CC3)n2)C1`, the logD is 1.71.

`CCCc1nc(NCN2CCCC2=O)nc(N2CCOCC2)n1` gave a logD of 1.62.

For `CCCCc1nc(NC2CC2)nc(N2CC(O)C2)n1`, the log distribution coefficient (logD) amounted to 1.61.

As to `CCCCc1nc(NC2CC2)nc(N2CC3CCC(C2)O3)n1`, the logD worked out at 3.02.

`CCCc1nc(NCc2ccccc2OC)nc(N2CCOCC2)n1` showed a pH-dependent lipophilicity (logD) of 3.59.

Consider `CCCc1nc(NCCC(=O)N(C)C)nc(N2CCOCC2)n1`, for which the logD turned out to be 0.67.

Turning to `CCCc1nc(N)nc(N2CCOCC2)n1`, the logD is 1.55.

For `OCCN(CCO)c1nc(CC2CC2)nc(NC2CC2)n1`, the logD is 1.82.

`O=S1(=O)CCN(c2nc(CC3CC3)nc(NC3CC3)n2)CC1` showed a pH-dependent lipophilicity (logD) of 1.76.

In turn, `Cc1nc(NC2CC2)nc(N2CC3CCC(C2)O3)n1` registered a logD of 1.84.

Turning to `CCCc1nc(NCC)nc(N2CCOCC2)n1`, the logD was 2.23.

With `C1CC(Cc2nc(NC3CC3)nc(N3CCOCC3)n2)C1`, the logD is 3.14.

`CCCc1nc(NC2CC2)nc(N2CCOCC2)n1` returned a logD of 2.11.

For the compound `C1CC1Cc1nc(NC2CC2)nc(N2CC3CCC(C2)O3)n1`, the logD is 3.07.

`C1CCC(Cc2nc(NC3CC3)nc(N3CCOCC3)n2)C1` came in with a logD of 3.6.

The compound `CCCCc1nc(NC2CC2)nc(N(CCO)CCO)n1` registered a logD of 1.76.

Assay in another data set: not given
Conditions: not given
Take `CCCc1nc(NC)nc(N2CCOCC2)n1`: the logP – broadly, a log measure of how a compound divides between an organic and an aqueous phase – is 2.02.

In turn, `CCCCNc1nc(CCC)nc(N2CCOCC2)n1` displayed a logP of 2.78.

Turning to `CCCc1nc(NCN(C)C)nc(N2CCOCC2)n1`, the lipophilicity (logP) was 1.94.

For `CCCc1nc(N)nc(N2CCCCC2)n1`, the logP was 2.43.

For `CCCc1nc(NCC(C)C)nc(N2CCOCC2)n1`, the logP amounted to 2.65.

As to `C=CCCNc1nc(CCC)nc(N2CCOCC2)n1`, the logP was found to be 2.47.
